Assay results reported in BindingDB's records for doi:10.1007/s00259-006-0324-y (Columbia University, 2007).

Columns and labels:
[1] = biological target: 5-hydroxytryptamine receptor 2B (Bos taurus, UniProt Q8MI09)
Vasopressin V1a receptor = Vasopressin V1a receptor (Bos taurus, UniProt A2VDS9)
Vasopressin V1b receptor = Vasopressin V1b receptor (Bos taurus, UniProt F1ME85)
Protein lifeguard 1 = Protein lifeguard 1 (Bos taurus, UniProt Q32L53)
[2] = biological target: Potassium voltage-gated channel subfamily H member 2 (Bos taurus, UniProt A5PKI1)
Glutamate receptor [3] = biological target: Glutamate receptor (Bos taurus, UniProt E1BGZ0)
[4] = biological target: Sodium-dependent dopamine transporter (Bos taurus, UniProt P27922)
Vasopressin V2 receptor = Vasopressin V2 receptor (Bos taurus, UniProt P48044)
Substance-K receptor = Substance-K receptor (Bos taurus, UniProt P05363)
Cannabinoid receptor 2 = Cannabinoid receptor 2 (Bos taurus, UniProt E1B9P2)
[5] = biological target: 5-hydroxytryptamine receptor 7 (Bos mutus, UniProt L8II28)
Dopamine receptor D4 = Dopamine receptor D4 (Bos taurus, UniProt Q8WNT0)
Beta-arrestin-1 = Beta-arrestin-1 (Bos taurus, UniProt P17870)
[6] = biological target: 4-aminobutyrate aminotransferase, mitochondrial (Bos taurus, UniProt Q9BGI0)
[7] = biological target: 5-hydroxytryptamine 1D receptor (Bos taurus, UniProt Q8MI13)
[8] = biological target: Multidrug resistance protein 1 (Bos taurus, UniProt Q65A17)
Glutamate receptor [9] = biological target: Glutamate receptor (Bos taurus, UniProt A4FV91)
D(1A) dopamine receptor = D(1A) dopamine receptor (Bos taurus, UniProt Q95136)
[10] = biological target: 5-hydroxytryptamine receptor 3A (Bos taurus, UniProt F1N4Y2)
[11] = biological target: Beta-2 adrenergic receptor (Bos taurus, UniProt Q28044)
[12] = biological target: Voltage-dependent L-type calcium channel subunit beta-2 (Bos taurus, UniProt Q9MZL5)
Histamine H2 receptor = Histamine H2 receptor (Bos mutus, UniProt L8IRW0)
[13] = biological target: 5-hydroxytryptamine receptor 6 (Bos mutus, UniProt L8HST4)
[14] = biological target: Solute carrier family 22 member 1 (Bos taurus, UniProt A7MBE0)
Beta-arrestin-2 = Beta-arrestin-2 (Bos taurus, UniProt P32120)
[15] = biological target: Muscarinic acetylcholine receptor M2 (Bos taurus, UniProt P41985)
Neuromedin-K receptor = Neuromedin-K receptor (Bos mutus, UniProt L8IYF9)
Thromboxane-A synthase = Thromboxane-A synthase (Bos taurus, UniProt Q2KIG5)
Histamine receptor H3 = Histamine receptor H3 (Bos taurus, UniProt F1MML8)
[16] = biological target: 5-hydroxytryptamine receptor 1B (Bos mutus, UniProt L8IGV0)
[17] = biological target: Vesicle amine transport protein 1 homolog (T. californica)-like (Bos taurus, UniProt Q29RL6)
[18] = biological target: 5-hydroxytryptamine receptor 5A (Bos mutus, UniProt L8HQU1)
D(2) dopamine receptor = D(2) dopamine receptor (Bos taurus, UniProt P20288)
[19] = biological target: 5-hydroxytryptamine receptor 2A (Bos taurus, UniProt Q75Z89)
[20] = biological target: Gamma-aminobutyric acid receptor subunit alpha-1 (Bos taurus, UniProt P08219)
[21] = biological target: Sodium-dependent noradrenaline transporter (Bos taurus, UniProt P51143)
[22] = biological target: Kappa-type opioid receptor (Bos taurus, UniProt Q2KIP6)
Histamine H1 receptor = Histamine H1 receptor (Bos taurus, UniProt A5D795)
Mu-type opioid receptor = Mu-type opioid receptor (Bos taurus, UniProt P79350)
Nischarin = Nischarin (Bos mutus, UniProt L8IEU8)

Chain of Potassium voltage-gated channel subfamily H member 2 (A5PKI1 whole entry): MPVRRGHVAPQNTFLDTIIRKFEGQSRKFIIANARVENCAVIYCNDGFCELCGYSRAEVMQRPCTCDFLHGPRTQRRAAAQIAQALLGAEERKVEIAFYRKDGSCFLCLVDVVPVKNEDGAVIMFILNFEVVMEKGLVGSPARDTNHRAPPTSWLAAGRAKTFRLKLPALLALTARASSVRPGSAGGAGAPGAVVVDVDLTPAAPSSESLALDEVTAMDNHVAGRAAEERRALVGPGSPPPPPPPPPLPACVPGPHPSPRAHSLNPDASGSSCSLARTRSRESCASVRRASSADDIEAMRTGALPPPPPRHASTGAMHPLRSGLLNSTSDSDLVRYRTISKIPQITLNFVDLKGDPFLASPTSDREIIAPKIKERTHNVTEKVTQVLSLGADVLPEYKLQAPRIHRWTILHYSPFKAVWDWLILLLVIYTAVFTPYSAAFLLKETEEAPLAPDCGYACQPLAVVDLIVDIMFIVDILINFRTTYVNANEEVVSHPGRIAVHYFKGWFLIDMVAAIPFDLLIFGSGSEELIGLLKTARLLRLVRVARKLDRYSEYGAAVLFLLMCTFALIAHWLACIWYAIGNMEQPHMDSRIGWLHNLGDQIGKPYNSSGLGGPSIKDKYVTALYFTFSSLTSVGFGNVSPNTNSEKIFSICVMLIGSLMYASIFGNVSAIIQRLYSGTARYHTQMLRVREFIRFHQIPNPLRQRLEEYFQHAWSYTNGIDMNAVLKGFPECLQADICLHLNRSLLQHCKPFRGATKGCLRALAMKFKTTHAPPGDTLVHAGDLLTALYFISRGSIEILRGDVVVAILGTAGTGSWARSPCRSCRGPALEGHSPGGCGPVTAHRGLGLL
Chain of Kappa-type opioid receptor (Q2KIP6 whole entry): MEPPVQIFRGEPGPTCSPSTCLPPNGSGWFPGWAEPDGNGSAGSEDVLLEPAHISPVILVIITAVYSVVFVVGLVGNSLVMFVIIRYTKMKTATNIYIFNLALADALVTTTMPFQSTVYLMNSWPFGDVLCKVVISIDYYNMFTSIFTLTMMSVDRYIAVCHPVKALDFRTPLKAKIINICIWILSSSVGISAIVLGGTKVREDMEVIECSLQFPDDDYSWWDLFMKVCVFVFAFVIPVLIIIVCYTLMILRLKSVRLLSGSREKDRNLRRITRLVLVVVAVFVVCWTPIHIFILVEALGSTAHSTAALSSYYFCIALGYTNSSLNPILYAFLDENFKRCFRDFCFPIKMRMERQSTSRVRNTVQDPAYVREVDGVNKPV
Chain of Voltage-dependent L-type calcium channel subunit beta-2 (Q9MZL5 whole entry): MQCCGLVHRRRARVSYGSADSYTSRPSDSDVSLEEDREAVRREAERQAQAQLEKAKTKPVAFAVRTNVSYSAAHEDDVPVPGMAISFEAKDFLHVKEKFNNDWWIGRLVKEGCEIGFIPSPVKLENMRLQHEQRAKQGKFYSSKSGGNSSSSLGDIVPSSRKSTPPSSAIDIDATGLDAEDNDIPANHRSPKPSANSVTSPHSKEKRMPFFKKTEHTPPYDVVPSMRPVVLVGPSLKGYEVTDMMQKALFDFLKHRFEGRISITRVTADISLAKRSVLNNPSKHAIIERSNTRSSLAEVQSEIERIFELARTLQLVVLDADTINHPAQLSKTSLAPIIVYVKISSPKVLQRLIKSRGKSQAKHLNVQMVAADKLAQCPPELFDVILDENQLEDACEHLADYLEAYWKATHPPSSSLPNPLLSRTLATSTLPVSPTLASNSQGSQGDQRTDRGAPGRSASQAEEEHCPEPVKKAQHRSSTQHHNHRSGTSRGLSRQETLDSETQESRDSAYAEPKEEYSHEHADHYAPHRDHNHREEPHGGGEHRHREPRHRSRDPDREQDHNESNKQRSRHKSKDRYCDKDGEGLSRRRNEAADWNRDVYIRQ
Chain of Glutamate receptor (Bos taurus, UniProt A4FV91) (A4FV91 whole entry): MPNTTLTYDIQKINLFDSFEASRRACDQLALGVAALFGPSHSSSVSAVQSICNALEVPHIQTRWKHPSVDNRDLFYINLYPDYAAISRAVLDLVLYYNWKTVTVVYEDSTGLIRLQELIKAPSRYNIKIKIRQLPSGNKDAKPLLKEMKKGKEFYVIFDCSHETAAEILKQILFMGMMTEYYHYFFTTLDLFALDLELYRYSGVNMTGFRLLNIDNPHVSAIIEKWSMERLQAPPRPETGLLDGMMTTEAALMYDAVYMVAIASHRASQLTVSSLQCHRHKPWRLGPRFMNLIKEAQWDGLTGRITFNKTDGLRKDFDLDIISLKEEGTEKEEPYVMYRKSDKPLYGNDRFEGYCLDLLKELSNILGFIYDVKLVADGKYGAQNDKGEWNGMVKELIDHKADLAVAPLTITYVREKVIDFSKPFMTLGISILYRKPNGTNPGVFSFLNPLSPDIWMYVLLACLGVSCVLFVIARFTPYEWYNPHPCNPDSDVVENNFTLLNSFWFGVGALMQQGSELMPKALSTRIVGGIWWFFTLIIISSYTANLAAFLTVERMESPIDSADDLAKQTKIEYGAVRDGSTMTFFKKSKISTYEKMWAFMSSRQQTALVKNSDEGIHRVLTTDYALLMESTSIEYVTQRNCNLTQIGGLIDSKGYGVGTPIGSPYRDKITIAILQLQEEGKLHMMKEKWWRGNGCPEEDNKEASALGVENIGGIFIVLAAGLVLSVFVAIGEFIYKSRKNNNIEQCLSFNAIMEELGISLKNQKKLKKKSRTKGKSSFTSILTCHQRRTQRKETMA
Chain of Vasopressin V2 receptor (P48044 whole entry): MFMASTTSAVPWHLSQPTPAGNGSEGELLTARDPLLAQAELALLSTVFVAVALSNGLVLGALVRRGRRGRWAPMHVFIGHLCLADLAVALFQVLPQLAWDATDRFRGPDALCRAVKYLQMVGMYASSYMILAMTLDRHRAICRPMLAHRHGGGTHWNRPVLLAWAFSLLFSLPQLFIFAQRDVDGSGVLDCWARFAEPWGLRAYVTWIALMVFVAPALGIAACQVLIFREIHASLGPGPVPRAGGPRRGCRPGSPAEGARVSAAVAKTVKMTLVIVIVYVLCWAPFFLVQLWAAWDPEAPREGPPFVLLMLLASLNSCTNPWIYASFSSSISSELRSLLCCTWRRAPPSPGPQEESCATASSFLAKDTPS
Chain of D(2) dopamine receptor (P20288 whole entry): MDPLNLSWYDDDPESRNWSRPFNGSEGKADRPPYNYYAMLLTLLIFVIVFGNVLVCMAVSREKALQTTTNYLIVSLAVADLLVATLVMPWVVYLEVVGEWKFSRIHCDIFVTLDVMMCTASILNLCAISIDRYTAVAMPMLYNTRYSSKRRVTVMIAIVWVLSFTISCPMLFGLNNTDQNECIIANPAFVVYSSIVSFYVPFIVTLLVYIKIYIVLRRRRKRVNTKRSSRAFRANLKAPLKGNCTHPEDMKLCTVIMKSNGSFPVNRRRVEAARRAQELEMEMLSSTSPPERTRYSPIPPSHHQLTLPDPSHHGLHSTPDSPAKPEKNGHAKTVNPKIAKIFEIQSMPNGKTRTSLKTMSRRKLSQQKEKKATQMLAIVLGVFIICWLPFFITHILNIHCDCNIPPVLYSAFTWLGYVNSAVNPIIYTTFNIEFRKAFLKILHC
Chain of Beta-arrestin-1 (P17870 whole entry): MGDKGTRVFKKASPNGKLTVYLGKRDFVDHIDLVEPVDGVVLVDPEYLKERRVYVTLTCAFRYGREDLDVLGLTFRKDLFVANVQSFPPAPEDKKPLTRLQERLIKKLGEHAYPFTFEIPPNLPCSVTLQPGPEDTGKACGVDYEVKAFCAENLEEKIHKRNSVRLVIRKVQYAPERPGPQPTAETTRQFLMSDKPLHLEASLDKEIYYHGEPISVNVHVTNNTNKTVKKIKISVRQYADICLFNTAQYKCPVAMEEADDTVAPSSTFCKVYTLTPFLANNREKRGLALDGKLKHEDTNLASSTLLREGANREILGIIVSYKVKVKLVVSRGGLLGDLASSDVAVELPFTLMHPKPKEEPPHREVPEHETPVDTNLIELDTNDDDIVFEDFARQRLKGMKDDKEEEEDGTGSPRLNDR
Chain of Gamma-aminobutyric acid receptor subunit alpha-1 (P08219 whole entry): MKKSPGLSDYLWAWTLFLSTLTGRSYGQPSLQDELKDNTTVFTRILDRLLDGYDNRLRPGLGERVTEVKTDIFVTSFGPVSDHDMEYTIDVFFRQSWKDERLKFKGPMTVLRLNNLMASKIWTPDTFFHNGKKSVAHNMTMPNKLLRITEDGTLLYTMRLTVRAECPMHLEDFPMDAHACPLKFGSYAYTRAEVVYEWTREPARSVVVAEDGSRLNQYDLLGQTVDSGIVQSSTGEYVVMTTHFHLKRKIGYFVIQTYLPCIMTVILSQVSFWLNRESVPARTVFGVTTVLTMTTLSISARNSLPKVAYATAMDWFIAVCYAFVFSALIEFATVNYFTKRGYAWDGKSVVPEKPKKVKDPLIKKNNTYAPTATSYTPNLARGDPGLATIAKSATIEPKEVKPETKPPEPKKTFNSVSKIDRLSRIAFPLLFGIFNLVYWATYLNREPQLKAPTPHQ
Chain of Substance-K receptor (P05363 whole entry): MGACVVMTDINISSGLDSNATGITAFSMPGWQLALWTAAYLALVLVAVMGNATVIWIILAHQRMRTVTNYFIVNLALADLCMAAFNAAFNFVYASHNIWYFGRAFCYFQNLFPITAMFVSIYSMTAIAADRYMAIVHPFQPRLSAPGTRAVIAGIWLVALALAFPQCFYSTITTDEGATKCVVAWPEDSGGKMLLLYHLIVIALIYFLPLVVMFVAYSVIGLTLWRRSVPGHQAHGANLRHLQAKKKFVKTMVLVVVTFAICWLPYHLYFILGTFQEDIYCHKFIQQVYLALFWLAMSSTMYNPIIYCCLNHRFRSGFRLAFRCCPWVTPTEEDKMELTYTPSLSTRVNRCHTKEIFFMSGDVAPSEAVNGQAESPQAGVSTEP
Chain of Dopamine receptor D4 (Q8WNT0 whole entry): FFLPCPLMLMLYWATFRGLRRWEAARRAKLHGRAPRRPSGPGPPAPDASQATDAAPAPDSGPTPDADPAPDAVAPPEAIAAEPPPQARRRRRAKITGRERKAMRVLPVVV
Chain of 5-hydroxytryptamine receptor 2B (Q8MI09 whole entry): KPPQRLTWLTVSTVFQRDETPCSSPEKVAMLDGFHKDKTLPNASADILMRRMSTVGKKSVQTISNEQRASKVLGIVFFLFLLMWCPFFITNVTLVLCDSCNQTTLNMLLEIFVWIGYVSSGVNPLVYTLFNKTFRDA

Ki [1]: 0.0736 µM | Ki (Vasopressin V1a receptor): > 10 µM | Ki (Vasopressin V1b receptor): > 10 µM | Ki (Protein lifeguard 1): > 10 µM | Ki [2]: > 10 µM | Ki (Glutamate receptor [3]): > 10 µM | Ki [4]: > 10 µM | Ki (Vasopressin V2 receptor): > 10 µM | Ki (Substance-K receptor): > 10 µM | Ki (Cannabinoid receptor 2): > 10 µM | Ki [5]: 0.0129 µM | Ki (Dopamine receptor D4): 0.0218 µM | Ki (Beta-arrestin-1): > 10 µM | Ki [6]: > 10 µM | Ki [7]: 0.0883 µM | Ki [8]: > 10 µM | Ki (Glutamate receptor [9]): > 10 µM | Ki (D(1A) dopamine receptor): > 10 µM | Ki [10]: > 10 µM | Ki [11]: > 10 µM | Ki [12]: > 10 µM | Ki (Histamine H2 receptor): 2.13 µM | Ki [13]: > 10 µM | Ki [14]: 0.00675 µM | Ki (Beta-arrestin-2): > 10 µM | Ki [15]: > 10 µM | Ki (Neuromedin-K receptor): > 10 µM | Ki (Thromboxane-A synthase): > 10 µM | Ki (Histamine receptor H3): > 10 µM | Ki [16]: 0.643 µM | Ki [17]: > 10 µM | Ki [18]: > 10 µM | Ki (D(2) dopamine receptor): > 10 µM | Ki [19]: 4.98 µM | Ki [20]: > 10 µM | Ki [21]: > 10 µM | Ki [22]: > 10 µM | Ki (Histamine H1 receptor): 1.03 µM | Ki (Mu-type opioid receptor): > 10 µM | Ki (Nischarin): > 10 µM
SMILES: COc1ccccc1N1CCN(CCCCn2ncc(=O)n(C)c2=O)CC1 [NSC_11603174]
